BigSolDB 2.1

NC(=O)c1ncn([C@@H]2O[C@H](CO)[C@@H](O)[C@H]2O)n1
solubility (mole fraction)
Details | 278.15 K | 283.15 K | 288.15 K | 293.15 K | 298.15 K | 303.15 K | 308.15 K | 313.15 K | 318.15 K
in 1,4-dioxane | – | 7.06e-05 | 0.000101 | 0.000145 | 0.000203 | 0.000282 | 0.000387 | 0.000527 | 0.000712
in acetonitrile | 8.6e-06 | 1.33e-05 | 1.94e-05 | 2.77e-05 | 3.96e-05 | 5.64e-05 | 7.88e-05 | 0.00011 | 0.00015
in methanol | 0.000379 | 0.000517 | 0.000711 | 0.000952 | 0.00128 | 0.00171 | 0.00223 | 0.00293 | 0.00379
in n-propanol | 5.99e-05 | 8.69e-05 | 0.000122 | 0.000171 | 0.000242 | 0.000332 | 0.000455 | 0.000617 | 0.000829
in water | 0.0058 | 0.00775 | 0.0104 | 0.0135 | 0.0174 | 0.0219 | 0.0273 | 0.0335 | 0.0405
